Assay: Visual evaluation of dispersibility of celecoxib powders after reconstitution in 0.01N HCl
Type: physicochemical
Method: The unprocessed celecoxib, the blended celecoxib, and the jet milled blended celecoxib were analyzed using visual inspection and by light microscopy (performed on a hemacytometer slide) following reconstitution in 0.01N HCl. FIGS. 5A, 5B, and 5C show the particles of the bulk celecoxib, the blended powder, and the jet-milled blended powder, respectively. The quality of the suspensions are described in Table 2.

- Visual Evaluation of Suspension: Poor suspension containing many
SMILES: Cc1ccc(-c2cc(C(F)(F)F)nn2-c2ccc(S(N)(=O)=O)cc2)cc1 [Celecoxib/no blending or jet milling, celecoxib]
